In the CheMixHub viscosity set:

Experiment: xn = mol fraction of the nth substance listed

CCCCCCCCCCO + Cc1ccccc1
viscosity [mPa·s], 101 kPa
Conditions | 298.15 K | 308.15 K
x2 = 0.0507 | 10.3 | 7.108
x2 = 0.1015 | 9.101 | 6.203
x2 = 0.1473 | 8.207 | 5.499
x2 = 0.2091 | 7.146 | 4.673
x2 = 0.2577 | 6.303 | 4.079
x2 = 0.3006 | 5.584 | 3.647
x2 = 0.3496 | 4.913 | 3.173
x2 = 0.4028 | 4.195 | 2.786
x2 = 0.4516 | 3.678 | 2.398
x2 = 0.4989 | 3.222 | 2.122
x2 = 0.5497 | 2.797 | 1.832
x2 = 0.6009 | 2.439 | 1.569
x2 = 0.6498 | 2.13 | 1.393
x2 = 0.7065 | 1.819 | 1.159
x2 = 0.7524 | 1.537 | 1.047
x2 = 0.8069 | 1.308 | 0.858
x2 = 0.8472 | 1.071 | 0.798
x2 = 0.9063 | 0.807 | 0.687
x2 = 0.953 | 0.608 | 0.585

CCCCCCCCCCCC + CCCCCCCCCC
298.15 K, 101.33 kPa
Conditions | viscosity [mPa·s]
x2 = 0.1071 | 1.294
x2 = 0.2012 | 1.243
x2 = 0.3014 | 1.198
x2 = 0.4079 | 1.146
x2 = 0.5077 | 1.092
x2 = 0.6096 | 1.036
x2 = 0.7085 | 0.9801
x2 = 0.8052 | 0.9488
x2 = 0.9045 | 0.9028

Cc1ccccc1C + CCCCCC
viscosity [mPa·s], 101.33 kPa
Conditions | x2 = 0.29 | x2 = 0.6 | x2 = 0.79
293.15 K | 0.5875 | 0.4736 | 0.3659
313.15 K | 0.4679 | 0.3797 | 0.3022

OCCOCCOCCO + CCC(C)O
viscosity [mPa·s], 100 kPa
Conditions | x1 = 0.0808 | x1 = 0.1599 | x1 = 0.2399 | x1 = 0.35 | x1 = 0.44 | x1 = 0.5558 | x1 = 0.6502 | x1 = 0.7399 | x1 = 0.8502 | x1 = 0.94
293.15 K | 5.57 | 7.33 | 9.21 | 12.23 | 15.18 | 19.7 | 24.16 | 29.07 | 36.18 | 43.08
298.15 K | 4.23 | 5.59 | 7 | 9.31 | 11.53 | 14.96 | 18.37 | 22.16 | 27.73 | 33.06
303.15 K | 3.68 | 4.84 | 6.08 | 7.92 | 9.7 | 12.38 | 15.03 | 17.95 | 22.19 | 26.32
308.15 K | 3.18 | 4.17 | 5.17 | 6.64 | 7.98 | 10.05 | 12.09 | 14.34 | 17.76 | 21
313.15 K | 2.58 | 3.33 | 4.17 | 5.42 | 6.58 | 8.32 | 10.01 | 11.91 | 14.65 | 17.26
318.15 K | 2.26 | 3.02 | 3.79 | 4.92 | 5.92 | 7.37 | 8.75 | 10.23 | 12.32 | 14.31
323.15 K | 1.94 | 2.54 | 3.17 | 4.12 | 4.97 | 6.23 | 7.4 | 8.65 | 10.4 | 11.99

COCCOCCO + ClC(Cl)=C(Cl)Cl
298.15 K, 101.33 kPa
Conditions | viscosity [mPa·s]
x1 = 0.0072 | 0.852
x1 = 0.0147 | 0.859
x1 = 0.0261 | 0.869
x1 = 0.0417 | 0.884
x1 = 0.0604 | 0.911
x1 = 0.0868 | 0.948
x1 = 0.1038 | 0.975
x1 = 0.1347 | 1.023
x1 = 0.1769 | 1.092
x1 = 0.2025 | 1.139
x1 = 0.2433 | 1.216
x1 = 0.2755 | 1.279
x1 = 0.3041 | 1.34
x1 = 0.3353 | 1.413
x1 = 0.374 | 1.504
x1 = 0.4127 | 1.596
x1 = 0.4577 | 1.712
x1 = 0.4877 | 1.796
x1 = 0.5213 | 1.9
x1 = 0.5632 | 2.03
x1 = 0.5988 | 2.14
x1 = 0.6333 | 2.253
x1 = 0.6701 | 2.366
x1 = 0.7061 | 2.48
x1 = 0.7414 | 2.593
x1 = 0.7892 | 2.754
x1 = 0.8427 | 2.948
x1 = 0.8844 | 3.109
x1 = 0.9138 | 3.225
x1 = 0.9381 | 3.323
x1 = 0.9613 | 3.414
x1 = 0.978 | 3.478
x2 = 0.0115 | 3.521

CC(C)[C@@H]1CC[C@@H](C)C[C@H]1O + CCCCCCCCCCO
Conditions | viscosity [mPa·s]
298.15 K, 101.33 kPa, x1 = 0.5 | 21.24

Cc1ccc(Cl)cc1 + CCCCCC
viscosity [mPa·s], 100 kPa
Conditions | 298.15 K | 308.15 K | 318.15 K
x1 = 0.0878 | 0.332 | 0.307 | 0.285
x1 = 0.1581 | 0.352 | 0.324 | 0.3
x1 = 0.2446 | 0.379 | 0.348 | 0.322
x1 = 0.2988 | 0.397 | 0.364 | 0.337
x1 = 0.4004 | 0.435 | 0.398 | 0.367
x1 = 0.47 | 0.466 | 0.426 | 0.393
x1 = 0.5234 | 0.492 | 0.448 | 0.412
x1 = 0.572 | 0.519 | 0.47 | 0.429
x1 = 0.622 | 0.548 | 0.493 | 0.449
x1 = 0.681 | 0.584 | 0.524 | 0.475
x1 = 0.7857 | 0.654 | 0.584 | 0.53
x1 = 0.8603 | 0.707 | 0.632 | 0.572
x1 = 0.9366 | 0.773 | 0.687 | 0.618

Cc1ccccc1C + C1CCCCC1
viscosity [mPa·s], 101 kPa
Conditions | x1 = 0.0998 | x1 = 0.2001 | x1 = 0.3 | x1 = 0.4 | x1 = 0.5 | x1 = 0.6 | x1 = 0.7001 | x1 = 0.7999 | x1 = 0.9
303.15 K | 0.7647 | 0.7241 | 0.6977 | 0.6817 | 0.6728 | 0.6706 | 0.6735 | 0.681 | 0.6924
308.15 K | 0.7083 | 0.6736 | 0.6511 | 0.6372 | 0.6306 | 0.6289 | 0.6317 | 0.639 | 0.65
313.15 K | 0.6583 | 0.6281 | 0.6097 | 0.5979 | 0.592 | 0.5919 | 0.5946 | 0.6015 | 0.6118
318.15 K | 0.6129 | 0.5876 | 0.572 | 0.5615 | 0.5568 | 0.5562 | 0.5614 | 0.5679 | 0.5772
323.15 K | 0.5722 | 0.5508 | 0.5372 | 0.5284 | 0.5247 | 0.5248 | 0.5293 | 0.5365 | 0.5452
